Laboratory results from publication PMC5927803 (Pharmacology Research & Perspectives, 2018).
Where “and” joins values, the source holds several entries; their conditions need not be identical. Identical values can stand only once. Like-named read-outs stand apart in the source and are kept apart here. Each block holds one compound with its values, some of them ahead of it.

Tests used:
[1] = target: T1, hM4 mAChR (Homo sapiens, UniProt P08173); assay: Competition radioligand binding, [^3H]NMS
T1 sequence (P08173 1-479): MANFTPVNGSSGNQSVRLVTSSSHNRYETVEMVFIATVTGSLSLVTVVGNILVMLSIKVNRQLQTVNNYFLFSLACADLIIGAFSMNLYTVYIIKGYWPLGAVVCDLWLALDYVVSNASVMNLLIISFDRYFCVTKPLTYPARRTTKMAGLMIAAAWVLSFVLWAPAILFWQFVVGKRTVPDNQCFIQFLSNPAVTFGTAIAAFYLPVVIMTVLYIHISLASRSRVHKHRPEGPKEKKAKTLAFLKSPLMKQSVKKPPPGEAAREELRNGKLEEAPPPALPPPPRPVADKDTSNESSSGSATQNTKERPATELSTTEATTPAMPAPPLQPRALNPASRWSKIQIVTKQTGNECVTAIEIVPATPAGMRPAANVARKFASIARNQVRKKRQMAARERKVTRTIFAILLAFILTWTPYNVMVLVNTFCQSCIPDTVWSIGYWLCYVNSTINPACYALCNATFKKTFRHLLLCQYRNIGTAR

[2] = target: T2, hM5 mAChR (Homo sapiens, UniProt P08912); assay: Competition radioligand binding, [^3H]NMS
T2 sequence (P08912 1-532): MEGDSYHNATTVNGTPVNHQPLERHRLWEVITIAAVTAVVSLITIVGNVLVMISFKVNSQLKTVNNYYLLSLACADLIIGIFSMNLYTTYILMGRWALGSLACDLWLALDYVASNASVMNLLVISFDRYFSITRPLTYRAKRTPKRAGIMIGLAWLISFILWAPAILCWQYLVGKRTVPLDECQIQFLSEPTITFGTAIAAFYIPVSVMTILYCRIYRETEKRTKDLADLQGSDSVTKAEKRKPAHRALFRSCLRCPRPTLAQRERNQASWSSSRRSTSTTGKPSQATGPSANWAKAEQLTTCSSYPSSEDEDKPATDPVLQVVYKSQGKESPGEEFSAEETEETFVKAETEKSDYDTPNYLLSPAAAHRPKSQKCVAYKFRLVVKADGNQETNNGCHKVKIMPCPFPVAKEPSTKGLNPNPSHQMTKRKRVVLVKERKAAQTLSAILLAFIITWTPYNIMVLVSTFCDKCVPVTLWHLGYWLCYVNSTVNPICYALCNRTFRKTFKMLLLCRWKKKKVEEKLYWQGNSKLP

[3] = target: T3, cM5 mAChR (Pan troglodytes, UniProt Q5IS53); assay: Inhibition of agonist-stimulated calcium mobilization; format: cell-based, chimpanzee
T3 sequence (Q5IS53 1-532): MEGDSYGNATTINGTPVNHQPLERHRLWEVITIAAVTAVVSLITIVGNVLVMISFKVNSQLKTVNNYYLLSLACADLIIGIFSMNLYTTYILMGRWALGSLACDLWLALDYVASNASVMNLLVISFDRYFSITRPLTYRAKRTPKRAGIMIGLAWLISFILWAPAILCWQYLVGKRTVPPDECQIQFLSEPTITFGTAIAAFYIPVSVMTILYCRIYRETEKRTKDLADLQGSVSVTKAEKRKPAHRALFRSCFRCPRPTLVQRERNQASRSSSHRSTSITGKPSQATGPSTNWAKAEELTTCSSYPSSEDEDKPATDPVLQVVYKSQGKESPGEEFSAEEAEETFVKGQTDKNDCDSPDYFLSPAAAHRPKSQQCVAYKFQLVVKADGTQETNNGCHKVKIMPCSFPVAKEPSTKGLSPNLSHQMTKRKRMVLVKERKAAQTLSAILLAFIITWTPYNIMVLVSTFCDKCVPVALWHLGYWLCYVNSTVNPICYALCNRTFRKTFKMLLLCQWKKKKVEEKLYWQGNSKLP

[4] = test system: guinea pig isolated trachea; assay: Inhibition of EFS contraction: potency and offset time; conditions: IC90 concentration, washout
[5] = target: T4, hM4‐Gα16 mAChR (Homo sapiens, UniProt P08173); assay: Inhibition of agonist-stimulated calcium mobilization; format: cell-based
T4 sequence (P08173 1-479): T1 sequence (P08173 1-479)

[6] = test system: human isolated bronchial tissue; conditions: human bronchus, carbachol; cited from earlier work
[7] = target: Guinea Pig H1 (central) (Cavia porcellus, UniProt P31389); assay: Off-target panel radioligand binding; conditions: read-out: % Inhibition Specific Binding (1 µM)
[8] = target: T5, hM1 mAChR (Homo sapiens, UniProt P11229); assay: Competition radioligand binding, [^3H]NMS
T5 sequence (P11229 1-460): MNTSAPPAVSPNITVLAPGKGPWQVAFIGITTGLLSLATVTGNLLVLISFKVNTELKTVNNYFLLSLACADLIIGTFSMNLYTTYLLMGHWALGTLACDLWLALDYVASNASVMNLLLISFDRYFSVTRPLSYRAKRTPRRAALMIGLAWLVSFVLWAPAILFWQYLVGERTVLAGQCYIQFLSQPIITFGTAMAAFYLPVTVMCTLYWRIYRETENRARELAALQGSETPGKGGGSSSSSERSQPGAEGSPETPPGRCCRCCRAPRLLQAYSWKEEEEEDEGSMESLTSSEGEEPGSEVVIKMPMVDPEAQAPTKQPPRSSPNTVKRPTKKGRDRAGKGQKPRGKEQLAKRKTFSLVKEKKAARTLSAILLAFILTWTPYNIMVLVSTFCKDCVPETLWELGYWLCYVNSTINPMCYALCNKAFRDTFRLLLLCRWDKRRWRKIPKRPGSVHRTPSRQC

[9] = target: T6, hM2 mAChR (Homo sapiens, UniProt P08172); assay: Inhibition of agonist-stimulated [^35S]GTPγS binding, CHO-K1 membranes; format: biochemical; conditions: absence of agonist
T6 sequence (P08172 1-466): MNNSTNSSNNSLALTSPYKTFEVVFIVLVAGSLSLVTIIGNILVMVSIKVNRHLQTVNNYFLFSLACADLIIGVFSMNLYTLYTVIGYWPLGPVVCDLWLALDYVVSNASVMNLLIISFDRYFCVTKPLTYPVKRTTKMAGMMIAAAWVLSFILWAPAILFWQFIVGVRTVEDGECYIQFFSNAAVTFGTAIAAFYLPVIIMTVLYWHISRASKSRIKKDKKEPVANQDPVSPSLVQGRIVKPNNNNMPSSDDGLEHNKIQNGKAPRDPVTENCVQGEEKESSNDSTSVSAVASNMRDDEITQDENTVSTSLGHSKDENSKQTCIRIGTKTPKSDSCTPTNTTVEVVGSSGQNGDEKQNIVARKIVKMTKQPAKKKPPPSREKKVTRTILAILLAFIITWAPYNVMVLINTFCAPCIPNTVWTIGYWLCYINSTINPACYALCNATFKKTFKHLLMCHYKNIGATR

[10] = target: T5, hM1 mAChR; assay: Inhibition of agonist-stimulated calcium mobilization; format: cell-based
[11] = target: T7, hM3 mAChR (Homo sapiens, UniProt P20309); assay: Reversibility of antagonism of ACh-induced calcium mobilization, CHO-K1 cells; format: cell-based
[12] = target: T7, hM3 mAChR; assay: Association and dissociation binding kinetics
[13] = test system: rat isolated tracheal tissue; assay: Antagonism of ACh-evoked contraction: potency and offset time
[14] = target: T7, hM3 mAChR; assay: Competition radioligand binding, [^3H]NMS; conditions: hM3 pKI, [^3H]NMS competition, CHO-K1 membranes, 37°C; mean ± SD
[15] = target: cloned human 5‐HT4(C) receptors (Homo sapiens, UniProt Q13639); assay: 5-HT4 agonist assay; format: cell-based
[16] = test system: bronchoconstrictor response to ACh or methacholine (MCh); conditions: dogs, inhalation dosing; cited from earlier work
[17] = target: T7, hM3 mAChR; assay: Saturation radioligand binding
[18] = target: T1, hM4 mAChR; assay: Saturation radioligand binding
[19] = target: T5, hM1 mAChR; assay: Saturation radioligand binding
[20] = test system: bronchoconstrictor response to ACh or methacholine (MCh); conditions: rats, inhalation dosing; cited from earlier work
[21] = target: histamine H1 receptor (Cavia porcellus, UniProt P31389); assay: H1 radioligand binding, concentration-response; conditions: selectivity hM3 over H1
[22] = test system: panel of 81 receptors, enzymes, and channels; assay: Off-target panel screen; format: binding; conditions: 1 μmol L^−1
[23] = target: T6, hM2 mAChR; assay: Association and dissociation binding kinetics; conditions: 37°C
[24] = test system: human isolated bronchial tissue; assay: Antagonism of carbachol-evoked contraction: potency and offset time; conditions: superfusion washout, 10‐100 nmol·L^−1, 1 μmol L^−1 CCh, 10 hours perfusion
[25] = target: T2, hM5 mAChR; assay: Saturation radioligand binding
[26] = target: T7, hM3 mAChR; assay: Inhibition of agonist-stimulated calcium mobilization; format: cell-based
[27] = test system: COPD patients; conditions: nebulized, once‐daily dosing; cited from earlier work
[28] = target: T6, hM2 mAChR; conditions: cited from earlier work
[29] = target: T7, hM3 mAChR; conditions: cited from earlier work
[30] = tested alone in cells expressing mAChRs

T7 sequence (P20309 whole entry): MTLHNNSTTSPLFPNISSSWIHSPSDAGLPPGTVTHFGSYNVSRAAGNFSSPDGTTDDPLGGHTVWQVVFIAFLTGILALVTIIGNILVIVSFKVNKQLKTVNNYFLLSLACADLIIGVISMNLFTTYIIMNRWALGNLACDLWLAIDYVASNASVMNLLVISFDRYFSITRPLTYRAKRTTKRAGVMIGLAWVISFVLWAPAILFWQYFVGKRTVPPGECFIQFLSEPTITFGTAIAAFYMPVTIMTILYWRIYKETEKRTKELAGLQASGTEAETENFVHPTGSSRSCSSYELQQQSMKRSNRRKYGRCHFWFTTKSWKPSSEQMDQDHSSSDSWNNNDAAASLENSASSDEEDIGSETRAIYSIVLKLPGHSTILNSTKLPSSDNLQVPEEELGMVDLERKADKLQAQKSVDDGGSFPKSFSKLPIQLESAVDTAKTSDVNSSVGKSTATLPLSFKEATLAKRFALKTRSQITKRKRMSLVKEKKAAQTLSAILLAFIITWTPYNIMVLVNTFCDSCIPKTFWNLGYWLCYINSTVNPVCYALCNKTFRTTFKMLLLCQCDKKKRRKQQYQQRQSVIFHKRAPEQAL
Sequence of cloned human 5‐HT4(C) receptors (Q13639 1-380 isoform Q13639-4): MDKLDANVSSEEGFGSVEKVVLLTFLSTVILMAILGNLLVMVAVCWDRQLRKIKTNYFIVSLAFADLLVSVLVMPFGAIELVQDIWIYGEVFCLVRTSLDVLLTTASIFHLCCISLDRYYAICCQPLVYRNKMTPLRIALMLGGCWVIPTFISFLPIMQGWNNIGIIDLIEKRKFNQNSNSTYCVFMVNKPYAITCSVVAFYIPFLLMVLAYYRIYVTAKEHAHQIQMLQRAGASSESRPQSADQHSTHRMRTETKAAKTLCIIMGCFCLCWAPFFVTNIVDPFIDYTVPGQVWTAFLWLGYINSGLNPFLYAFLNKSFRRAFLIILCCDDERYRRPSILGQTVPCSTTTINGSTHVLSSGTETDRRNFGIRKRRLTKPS
Sequence of Guinea Pig H1 (central) (P31389 whole entry): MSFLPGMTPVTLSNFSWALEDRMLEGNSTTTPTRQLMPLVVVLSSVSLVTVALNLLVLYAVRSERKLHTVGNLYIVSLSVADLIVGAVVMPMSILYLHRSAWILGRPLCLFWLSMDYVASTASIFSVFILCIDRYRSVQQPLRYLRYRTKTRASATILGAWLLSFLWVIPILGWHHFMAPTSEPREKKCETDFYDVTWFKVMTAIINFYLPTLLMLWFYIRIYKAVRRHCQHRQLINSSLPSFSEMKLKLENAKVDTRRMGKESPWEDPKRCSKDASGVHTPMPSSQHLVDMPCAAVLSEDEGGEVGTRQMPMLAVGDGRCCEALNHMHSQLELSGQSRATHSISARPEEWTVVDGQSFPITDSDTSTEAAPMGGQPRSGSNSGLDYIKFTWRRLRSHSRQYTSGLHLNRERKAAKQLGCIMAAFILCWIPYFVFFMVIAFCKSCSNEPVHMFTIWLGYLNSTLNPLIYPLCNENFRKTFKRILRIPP
Sequence of histamine H1 receptor (P31389 whole entry): as above

Ki [1]: 0.0204 nM | Ki [2]: 0.0813 nM | Ki [3]: 0.105 nM | offset t 1/2 [4]: > 20 h | Ki [5]: 0.0617 nM
Structure (SMILES): C[N+]1(C)[C@@H]2C[C@@H](OC(=O)C(O)(c3cccs3)c3cccs3)C[C@H]1[C@@H]1O[C@@H]12 [Tiotropium, reference compound]
nature of antagonism [6]: potent insurmountable antagonist

Structure (SMILES): CN(CCN1CCC(OC(=O)Nc2ccccc2-c2ccccc2)CC1)C(=O)c1ccc(CN2CCC(C(N)=O)CC2)cc1 [Revefenacin, biphenyl‐2‐ylcarbamic acid 1‐(2‐{[4‐(4‐carbamoylpiperidin‐1‐ylmethyl)benzoyl]methylamino}ethyl)piperidin‐4‐yl ester]
inhibition at 1 µM [7]: 87% | Ki [8]: 0.417 nM | Ki ([1]; hM4 KI, [^3H]NMS competition, from IC50 by Cheng and Prusoff): 0.56 nM | Ki ([1]; hM4 pKI, [^3H]NMS competition, CHO-K1 membranes, 37°C, mean ± SD): 0.55 nM | Ki ([2]; hM5 KI, [^3H]NMS competition, from IC50 by Cheng and Prusoff): 6.7 nM | Ki ([2]; hM5 pKI, [^3H]NMS competition, CHO-K1 membranes, 37°C, mean ± SD): 6.31 nM | Ki [3]: 0.363 nM | Ca^2+ response when tested alone (agonist activity), cM5 [3, 30]: no Ca^2+ response | stimulation of [^35S]GTPγS binding at hM2 (agonist activity) [9]: did not stimulate | Ki [10]: 0.126 nM | Ca^2+ response when tested alone (agonist activity), hM1 [10, 30]: no Ca^2+ response | Kb [11]: 0.0933 nM | Kd [12]: 0.0933 nM | hM3 dissociation t 1/2 shorter than that of tiotropium [12]: 2.8 fold | dissociation t 1/2 M3 ([12]; 37°C): 1.37 h | offset t 1/2 ([13]; IC90 concentration, washout, time for response to recover by 50%): 13.3 h | potency lower than that of tiotropium ([13]; from pKB): 4 fold | potency greater than that of ipratropium ([13]; pKB vs pA2): 20 fold | Ki [14]: 0.2 nM and 0.178 nM | offset t 1/2 [4]: > 16 h | EC50 [15]: 257 nM | potency at 5‐HT4 receptor lower than Ki at the hM3 receptor ([15]; selectivity hM3 over 5-HT4): > 1400 fold | duration of bronchoprotective effect [16]: ≥ 24 h | Kd [17]: 0.39 nM | Kd [18]: 0.46 nM | Kd [19]: 1 nM | duration of bronchoprotective effect [20]: ≥ 24 h | potency at histamine H1 receptor lower than Ki at the hM3 receptor [21]: > 2700 fold | activity at a majority of the targets [22]: < 75% | Ki [5]: 0.0112 nM | Ca^2+ response when tested alone (agonist activity), hM4‐Gα16 [5, 30]: no Ca^2+ response | dissociation t 1/2 M2 [23]: 6.9 min | offset t 1/2 [24]: > 10 h | Kd [25]: 4.2 nM | Ki [26]: 0.0955 nM | Ca^2+ response when tested alone (agonist activity), hM3 [26, 30]: no Ca^2+ response | duration of bronchodilation [27]: 24 h

Structure (SMILES): CC(C)[N+]1(C)[C@@H]2CC[C@H]1C[C@@H](OC(=O)C(CO)c1ccccc1)C2 (stereo partly drawn) [Ipratropium, reference compound]
Ki [3]: 0.191 nM | pA2 ([13]; ACh contraction, surmountable antagonist): 9.2 ± 0.1 | dissociation from hM2 receptors [28]: dissociate rapidly | dissociation from hM3 receptors [29]: dissociate rapidly | nature of antagonism [6]: surmountable antagonism
